According to article PMC9205905, “Core and rod structures of a thermophilic cyanobacterial light-harvesting phycobilisome” (Nature Communications, 2022):

Experiments:
[1] = biological target: T1, CpcB (phycocyanin beta-subunit) (Thermostichus vulcanus, UniProt Q71RW8); assay: cryo-EM structure, […] Å; format: binding; details: covalent thioether to Cys84 and Cys155 of CpcB
T1 construct: native phycocyanin rod dissociated from intact phycobilisomes; two PC hexamers with linkers CpcC, CpcD, CpcG; with C-phycocyanin alpha subunit

[2] = biological target: T2, CpcA (phycocyanin alpha-subunit) (Thermostichus vulcanus, UniProt Q9AM02); assay: cryo-EM structure, […] Å; format: binding; details: covalent thioether to Cys84 of CpcA
T2 construct: native phycocyanin rod dissociated from intact phycobilisomes; two PC hexamers with linkers CpcC, CpcD, CpcG; with C-phycocyanin beta subunit

For CC=C1C(=Cc2[nH]c(C=C3N=C(C=C4NC(=O)C(CC)=C4C)C(C)=C3CCC(=O)O)c(CCC(=O)O)c2C)NC(=O)[C@@H]1C [phycocyanobilin], the “cryo-EM structure, 4.2 Å” value [1] was “Arrangement of chromophores in the PC rod” and the “cryo-EM structure, 4.2 Å” value [2] was “Arrangement of chromophores in the PC rod”.
